Measured values taken from the supplement of paper PMC11414989.

Legend:
Settings in all cases: exposure window: 6 hpf to 120 hpf, static, assay age: 120 hpf (5 dpf)
[1] = test system: Danio rerio larvae (Tropical 5D); assay: mean angular velocity of exposed larvae, light phase (angular velocity (unit not stated)); higher = more movement
Experimental: (§1)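 Larval photomotor response in Tropical 5D wild-type zebrafish. Larvae were statically exposed to each chemical from 6 hpf to 5 dpf in 96-well plates; morphologically abnormal larvae were excluded. At 120 hpf, larvae were tracked with Ethovision XT (25 frames/s) over the 2nd cycle of 3 min light and 3 min dark. Values are the mean movement metric of exposed larvae per phase; same-plate control means (plate-dependent baseline) are given as conditions.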

[2] = test system: Danio rerio larvae (Tropical 5D); assay: mean angular velocity of exposed larvae, dark phase (angular velocity (unit not stated)); higher = more movement
Experimental: as §1

[3] = test system: Danio rerio larvae (Tropical 5D); assay: mean distance moved of exposed larvae, light phase (µm per frame (1/25 s)); higher = more movement
Experimental: as §1

[4] = test system: Danio rerio larvae (Tropical 5D); assay: mean distance moved of exposed larvae, dark phase (µm per frame (1/25 s)); higher = more movement
Experimental: as §1

In the case of `C[Si](C)(C)C(F)(F)C(F)(F)C(F)(F)F` [(Heptafluoropropyl)trimethylsilane], the “mean angular velocity of exposed larvae” value ([1]; 0.015 µM) is reported as 0.0325, the “mean angular velocity of exposed larvae” value ([1]; 0.046 µM) is reported as 0.0534 and the “mean angular velocity of exposed larvae” value ([1]; 0.14 µM) is reported as 0.0675. For the same compound, the “mean angular velocity of exposed larvae” value ([1]; 0.41 µM) was 0.0607, the “mean angular velocity of exposed larvae” value ([1]; 1.23 µM) was 0.048 and the “mean angular velocity of exposed larvae” value ([1]; 3.7 µM) was 0.0422. For the same compound, the “mean angular velocity of exposed larvae” value ([1]; 11.1 µM) was 0.0925, the “mean angular velocity of exposed larvae” value ([1]; 33.3 µM) was 0.0521 and the “mean angular velocity of exposed larvae” value ([1]; 66.5 µM) was 0.0503. For the same compound, the “mean angular velocity of exposed larvae” value ([1]; 100 µM) was 0.0731, the “mean angular velocity of exposed larvae” value ([2]; 0.015 µM) was 0.571 and the “mean angular velocity of exposed larvae” value ([2]; 0.046 µM) was 0.779. The “mean angular velocity of exposed larvae” value ([2]; 0.14 µM) was 0.81, the “mean angular velocity of exposed larvae” value ([2]; 0.41 µM) was 0.637 and the “mean angular velocity of exposed larvae” value ([2]; 1.23 µM) was 0.884. The “mean angular velocity of exposed larvae” value ([2]; 3.7 µM) was 0.521, the “mean angular velocity of exposed larvae” value ([2]; 11.1 µM) was 0.685 and the “mean angular velocity of exposed larvae” value ([2]; 33.3 µM) was 0.594. For the same compound, the “mean angular velocity of exposed larvae” value ([2]; 66.5 µM) was 0.949, the “mean angular velocity of exposed larvae” value ([2]; 100 µM) was 1.01 and the “mean distance moved of exposed larvae” value ([3]; 0.015 µM) was 1.23. For the same compound, the “mean distance moved of exposed larvae” value ([3]; 0.046 µM) was 1.25, the “mean distance moved of exposed larvae” value ([3]; 0.14 µM) was 1.98 and the “mean distance moved of exposed larvae” value ([3]; 0.41 µM) was 1.51. The “mean distance moved of exposed larvae” value ([3]; 1.23 µM) was 1.46, the “mean distance moved of exposed larvae” value ([3]; 3.7 µM) was 0.916 and the “mean distance moved of exposed larvae” value ([3]; 11.1 µM) was 2.09. For the same compound, the “mean distance moved of exposed larvae” value ([3]; 33.3 µM) was 1.5, the “mean distance moved of exposed larvae” value ([3]; 66.5 µM) was 1.57 and the “mean distance moved of exposed larvae” value ([3]; 100 µM) was 2.09. The “mean distance moved of exposed larvae” value ([4]; 0.015 µM) was 13.3, the “mean distance moved of exposed larvae” value ([4]; 0.046 µM) was 19.7 and the “mean distance moved of exposed larvae” value ([4]; 0.14 µM) was 19.1. For the same compound, the “mean distance moved of exposed larvae” value ([4]; 0.41 µM) was 16.9, the “mean distance moved of exposed larvae” value ([4]; 1.23 µM) was 22.6 and the “mean distance moved of exposed larvae” value ([4]; 3.7 µM) was 12.9. For the same compound, the “mean distance moved of exposed larvae” value ([4]; 11.1 µM) was 18.6, the “mean distance moved of exposed larvae” value ([4]; 33.3 µM) was 15.3 and the “mean distance moved of exposed larvae” value ([4]; 66.5 µM) was 25.7. For the same compound, the “mean distance moved of exposed larvae” value ([4]; 100 µM) was 24.3.

With `O=P(O)(C(F)(F)C(F)(F)C(F)(F)C(F)(F)C(F)(F)C(F)(F)F)C(F)(F)C(F)(F)C(F)(F)C(F)(F)C(F)(F)C(F)(F)F` [Sodium bis(perfluorohexyl)phosphinate] the “mean angular velocity of exposed larvae” value ([1]; 0.25 µM) was 0.163, the “mean angular velocity of exposed larvae” value ([2]; 0.25 µM) was 0.687 and the “mean distance moved of exposed larvae” value ([3]; 0.25 µM) was 1.35. The “mean distance moved of exposed larvae” value ([4]; 0.25 µM) was 14.2.

For `CCN(CC(=O)O)S(=O)(=O)C(F)(F)C(F)(F)C(F)(F)C(F)(F)C(F)(F)C(F)(F)C(F)(F)C(F)(F)F` [N-ethylperfluoro-1-octanesulfonamidoacetic acid], the “mean angular velocity of exposed larvae” value ([1]; 0.25 µM) was 0.0592, the “mean angular velocity of exposed larvae” value ([2]; 0.25 µM) was 0.335 and the “mean distance moved of exposed larvae” value ([3]; 0.25 µM) was 1.44. The “mean distance moved of exposed larvae” value ([4]; 0.25 µM) was 8.83.

For `O=P(O)(C(F)(F)C(F)(F)C(F)(F)C(F)(F)C(F)(F)C(F)(F)C(F)(F)C(F)(F)F)C(F)(F)C(F)(F)C(F)(F)C(F)(F)C(F)(F)C(F)(F)C(F)(F)C(F)(F)F` [Sodium bis(perfluorooctyl)phosphinate], the “mean angular velocity of exposed larvae” value ([1]; 0.25 µM) was 0.119, the “mean angular velocity of exposed larvae” value ([2]; 0.25 µM) was 0.704 and the “mean distance moved of exposed larvae” value ([3]; 0.25 µM) was 2.89. The “mean distance moved of exposed larvae” value ([4]; 0.25 µM) was 15.1.

In the case of `CC[C@H](C)[C@H]1O[C@]2(C=C[C@@H]1C)C[C@@H]1C[C@@H](C/C=C(\C)[C@@H](O[C@H]3C[C@H](OC)[C@@H](O[C@H]4C[C@H](OC)[C@@H](O)[C@H](C)O4)[C@H](C)O3)[C@@H](C)/C=C/C=C3\CO[C@@H]4[C@H](O)C(C)=C[C@@H](C(=O)O1)[C@]34O)O2.CO[C@H]1C[C@H](O[C@H]2[C@H](C)O[C@@H](O[C@@H]3/C(C)=C/C[C@@H]4C[C@@H](C[C@]5(C=C[C@H](C)[C@@H](C(C)C)O5)O4)OC(=O)[C@@H]4C=C(C)[C@@H](O)[C@H]5OC/C(=C\C=C\[C@@H]3C)[C@]54O)C[C@@H]2OC)O[C@@H](C)[C@@H]1O` [Abamectin], the “mean angular velocity of exposed larvae” value ([1]; 0.1 µM) is reported as 0.111, the “mean angular velocity of exposed larvae” value ([1]; 0.2 µM) is reported as 0.19 and the “mean angular velocity of exposed larvae” value ([1]; 0.4 µM) is reported as 0.173. The “mean angular velocity of exposed larvae” value ([1]; 0.5 µM) was 0.0668, the “mean angular velocity of exposed larvae” value ([1]; 0.6 µM) was 0.0447 and the “mean angular velocity of exposed larvae” value ([1]; 0.8 µM) was 0.00094. The “mean angular velocity of exposed larvae” value ([2]; 0.1 µM) was 0.434, the “mean angular velocity of exposed larvae” value ([2]; 0.2 µM) was 0.554 and the “mean angular velocity of exposed larvae” value ([2]; 0.4 µM) was 0.283. The “mean angular velocity of exposed larvae” value ([2]; 0.5 µM) was 0.124, the “mean angular velocity of exposed larvae” value ([2]; 0.6 µM) was 0.0798 and the “mean angular velocity of exposed larvae” value ([2]; 0.8 µM) was 0.0985. The “mean distance moved of exposed larvae” value ([3]; 0.1 µM) was 2.76, the “mean distance moved of exposed larvae” value ([3]; 0.2 µM) was 5.62 and the “mean distance moved of exposed larvae” value ([3]; 0.4 µM) was 2.25. For the same compound, the “mean distance moved of exposed larvae” value ([3]; 0.5 µM) was 2.39, the “mean distance moved of exposed larvae” value ([3]; 0.6 µM) was 1.04 and the “mean distance moved of exposed larvae” value ([3]; 0.8 µM) was 0.0237. The “mean distance moved of exposed larvae” value ([4]; 0.1 µM) was 11.5, the “mean distance moved of exposed larvae” value ([4]; 0.2 µM) was 14.8 and the “mean distance moved of exposed larvae” value ([4]; 0.4 µM) was 7.04. For the same compound, the “mean distance moved of exposed larvae” value ([4]; 0.5 µM) was 3.9, the “mean distance moved of exposed larvae” value ([4]; 0.6 µM) was 2.89 and the “mean distance moved of exposed larvae” value ([4]; 0.8 µM) was 3.08.

For `NC(=O)C(F)(F)C(F)(F)C(F)(F)C(F)(F)F` [Nonafluoropentanamide], the “mean angular velocity of exposed larvae” value ([1]; 0.015 µM) was 0.107, the “mean angular velocity of exposed larvae” value ([1]; 0.046 µM) was 0.153 and the “mean angular velocity of exposed larvae” value ([1]; 0.14 µM) was 0.163. The “mean angular velocity of exposed larvae” value ([1]; 0.41 µM) was 0.0614, the “mean angular velocity of exposed larvae” value ([1]; 1.23 µM) was 0.124 and the “mean angular velocity of exposed larvae” value ([1]; 3.7 µM) was 0.0715. The “mean angular velocity of exposed larvae” value ([1]; 11.1 µM) was 0.078, the “mean angular velocity of exposed larvae” value ([1]; 33.3 µM) was 0.103 and the “mean angular velocity of exposed larvae” value ([1]; 66.5 µM) was 0.0723. The “mean angular velocity of exposed larvae” value ([1]; 100 µM) was 0.107, the “mean angular velocity of exposed larvae” value ([2]; 0.015 µM) was 0.911 and the “mean angular velocity of exposed larvae” value ([2]; 0.046 µM) was 1.03. For the same compound, the “mean angular velocity of exposed larvae” value ([2]; 0.14 µM) was 0.788, the “mean angular velocity of exposed larvae” value ([2]; 0.41 µM) was 0.731 and the “mean angular velocity of exposed larvae” value ([2]; 1.23 µM) was 0.649. The “mean angular velocity of exposed larvae” value ([2]; 3.7 µM) was 0.476, the “mean angular velocity of exposed larvae” value ([2]; 11.1 µM) was 0.903 and the “mean angular velocity of exposed larvae” value ([2]; 33.3 µM) was 0.989. The “mean angular velocity of exposed larvae” value ([2]; 66.5 µM) was 0.804, the “mean angular velocity of exposed larvae” value ([2]; 100 µM) was 0.714 and the “mean distance moved of exposed larvae” value ([3]; 0.015 µM) was 2.24. The “mean distance moved of exposed larvae” value ([3]; 0.046 µM) was 4.1, the “mean distance moved of exposed larvae” value ([3]; 0.14 µM) was 3.32 and the “mean distance moved of exposed larvae” value ([3]; 0.41 µM) was 2.83. For the same compound, the “mean distance moved of exposed larvae” value ([3]; 1.23 µM) was 1.91, the “mean distance moved of exposed larvae” value ([3]; 3.7 µM) was 2.44 and the “mean distance moved of exposed larvae” value ([3]; 11.1 µM) was 3.86. The “mean distance moved of exposed larvae” value ([3]; 33.3 µM) was 2.5, the “mean distance moved of exposed larvae” value ([3]; 66.5 µM) was 2.36 and the “mean distance moved of exposed larvae” value ([3]; 100 µM) was 2.76. For the same compound, the “mean distance moved of exposed larvae” value ([4]; 0.015 µM) was 25.4, the “mean distance moved of exposed larvae” value ([4]; 0.046 µM) was 26.1 and the “mean distance moved of exposed larvae” value ([4]; 0.14 µM) was 19.4. The “mean distance moved of exposed larvae” value ([4]; 0.41 µM) was 25.8, the “mean distance moved of exposed larvae” value ([4]; 1.23 µM) was 17.3 and the “mean distance moved of exposed larvae” value ([4]; 3.7 µM) was 12.1. For the same compound, the “mean distance moved of exposed larvae” value ([4]; 11.1 µM) was 23.9, the “mean distance moved of exposed larvae” value ([4]; 33.3 µM) was 26.5 and the “mean distance moved of exposed larvae” value ([4]; 66.5 µM) was 18.1. The “mean distance moved of exposed larvae” value ([4]; 100 µM) was 19.5.
